Consider one compound from US8932614B2, “Incorporation of particulate ceragenins in polymers” (priority 2011, dated 2015).

One test has as its system biofilms. The test is described as follows: Coated bone plates implanted into animals and challenged with biofilms. The settings on record: CSA-13 coated stainless steel plates. The test is classed as in vivo, sheep. From the text: Similar results were obtained in vivo when bone plates were coated with ceragenin-containing composites and were compared with bone plates coated with polymer only, then implanted into animals and challenged with biofilms. […] In contrast, 100% of animals who received polymer-only bone plates developed infection when they were infected with biofilms and bacterial loads in and around the infection site exceeded 10^6 bacterial cells per gram of tissue, which is well above the standard for infection.
In addition, histological sections were compared from animals receiving bone plates. […] Two sheep in Group 1 were euthanized after one week due to the severity of their infections. […] And while inflammation was present in sheep from all groups, with the highest level of inflammation being present in Group 1 sheep, this is a normal response to surgical trauma.

A further test has as its system MRSA. The test can be described thus: Coated titanium bone plugs in broth challenged with MRSA (planktonic, FIG. 4). The test is classed as cell-based, methicillin-resistant Staphylococcus aureus. The settings on record: for viable bacteria per tube: 4 and 8 hour time points, challenge ~5×10^8 CFU MRSA; for viable bacteria: 24 hour time point. How it is done: To confirm that medical devices coated with the ceragenin-containing composites described herein are able to kill bacteria, various groups of titanium bone plugs were prepared. The titanium bone plugs were either uncoated, coated with MED-6607 ceragenin-containing silicone polymer prepared as described above, or with MED-6607 silicone polymer only. In the groups of bone plugs that were coated with ceragenin-containing silicone polymer, the silicone either contained 16 wt %, 18 wt %, or 20 wt % ceragenin. Specifically, the groups of bone plugs were as follows: • 0%—a titanium bone plug coated with silicone polymer with no ceragenin • 16%—a titanium bone plug coated with silicone polymer containing 16% CSA-13 (w/w) • 18%—a titanium bone plug coated with silicone polymer containing 18% CSA-13 (w/w) • […] • titanium—a titanium bone plug with no coating
The bone plugs were placed into broth (e.g., 30 ml of broth) and challenged with ˜5×10^8 colony forming units (CFU) of MRSA. In addition, a broth/MRSA-only control was prepared. Samples were withdrawn from each of the tubes at 0, 1, 2, 4, 8, 24, and 48 hours. The data for the 0, 1, 2, 4, 8, and 24 hour data points are graphed in FIG. 4.
In contrast, the 16% tubes each contained about 1×10^3 CFU and the 20% tubes each contained about 5×10^2 CFU.

Molecules are shown by their SMILES.

As for `CCCCCCCCNCCC[C@@H](C)[C@H]1CC[C@H]2[C@@H]3[C@H](OCCCN)C[C@@H]4C[C@H](OCCCN)CC[C@]4(C)[C@H]3C[C@H](OCCCN)[C@]12C` [CSA-13], the “sheep showing signs of osteomyelitis (histology)” value in the test on biofilms (Group 2 (n=9): biofilm) and in the test with biofilms (Group 4 (n=8): no biofilm) was “none” throughout. Besides, the “viable bacteria per tube” value with MRSA (bone plug coated with silicone containing 16% CSA-13 (w/w)) is reported as “about 1×10^3 CFU”; in the test with MRSA (bone plug coated with silicone containing 18% CSA-13 (w/w)), “essentially no viable bacterial”; in the test on MRSA (bone plug coated with silicone containing 20% CSA-13 (w/w)) it was “about 5×10^2 CFU”. Moreover, the viable bacteria result in the test on MRSA (bone plug coated with silicone containing 16% CSA-13) was “considerable numbers of viable bacteria”; in the test with MRSA (bone plug coated with silicone containing 20% CSA-13, compared with 18%), “caught up to the 18”. Further, the “numbers of viable bacteria (CFU/ml) over time” value in the test with MRSA (tubes containing a bone plug with CSA-13 (16%, 18% and 20%), 0-24 h) was “dropped dramatically”.
